Data as given in BindingDB's records for patent US20230357253 (The Scripps Research Institute, 2023).

Molecular target: Stimulator of interferon genes protein (Homo sapiens, UniProt Q86WV6)
Assay: WT STING Binding Assay
Experimental: Upon proximity of the two dyes, the excitation of the donor by the flash lamp on the PHERAstar FSX plate reader triggers a Fluorescence Resonance Energy Transfer (FRET) towards the acceptor, which in turn fluoresces at 665 nm. To assess the ability of the synthetic small molecule STING ligands to bind to human STING, a competitive assay format was applied. A 10-point titration of each of the synthetic ligands in 5 uL were transferred into a 384 well plate, followed by 20 uL of assay buffer containing the 6×His-tagged human STING protein and labeled 2′3′cGAMP ligand and incubated for three hours at room temperature. The raw values obtained from the PHERAstar were used to calculate the reported IC50 values (the signal is inversely proportional to the binding of the synthetic ligand) through curve fitting in Genedata. The percent inhibition was calculated based upon the maximal amount of binding by synthetic compound versus the maximum binding of unlabeled 2′3′ cGAMP which was used as a control in each assay.

Sequence of Stimulator of interferon genes protein (Q86WV6 whole entry): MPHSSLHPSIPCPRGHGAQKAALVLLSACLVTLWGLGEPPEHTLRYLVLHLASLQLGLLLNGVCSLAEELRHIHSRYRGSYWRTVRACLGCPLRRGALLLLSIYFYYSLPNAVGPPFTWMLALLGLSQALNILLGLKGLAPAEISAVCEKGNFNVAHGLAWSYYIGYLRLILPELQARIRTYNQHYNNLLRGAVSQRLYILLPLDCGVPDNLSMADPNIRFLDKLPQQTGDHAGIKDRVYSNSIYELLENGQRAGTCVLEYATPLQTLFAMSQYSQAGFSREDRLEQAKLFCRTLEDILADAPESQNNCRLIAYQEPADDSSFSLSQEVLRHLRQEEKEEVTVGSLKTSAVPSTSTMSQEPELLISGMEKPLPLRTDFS

Q: Which IC50 does the source give for `O=C(Nc1cc(CCCc2cc(NC(=O)c3ccc4nnnn4n3)c(C(=O)O)cc2F)c(F)cc1C(=O)O)c1ccc(-n2ccnc2)nn1` [US20230357253, Compound 67] here?
A: < 0.01 µM

Q: `Cn1nccc1-c1ccc(C(=O)Nc2cc(OCCCOc3cc(NC(=O)c4ccc(-c5ccnn5C)nn4)c(C(=O)O)cc3F)c(F)cc2C(=O)O)nn1` [US20230357253, Compound 206] was tested. Which IC50 did it give?
A: > 1 µM

Q: `O=C(Nc1cc(CCCc2ccc(C(=O)O)c(NC(=O)c3ccc4nnnn4n3)c2)ccc1C(=O)O)c1ccc2nnnn2n1` [US20230357253, Compound 14] was tested. Which IC50 did it give?
A: > 1 µM

Q: `COc1nc(C(=O)O)c(NC(=O)c2ccc(-n3ccnc3)nn2)cc1CCCc1cc(NC(=O)c2ccc(-n3ccnc3)nn2)c(C(=O)O)cc1F` [US20230357253, Compound 134] was tested. Which IC50 did it give?
A: < 0.01 µM

Q: Which IC50 does the source give for `O=C(Nc1cc(OCCCOc2cc(C(=O)O)c(NC(=O)c3ccc(-n4ccnc4)nn3)cc2F)c(F)cc1C(=O)O)c1ccc(-n2ccnc2)nn1` [US20230357253, Compound 10] here?
A: < 0.01 µM

Q: How did the IC50 turn out when `C=C(Cc1cc(NC(=O)c2ccc(-n3ccnc3)nn2)c(C(=O)O)cc1F)Cc1cc(NC(=O)c2ccc(-n3ccnc3)nn2)c(C(=O)O)cc1F` [US20230357253, Compound 199] was run?
A: < 0.01 µM

Q: How did the IC50 turn out when `O=C(Nc1cc(CCOc2cc(C(=O)O)c(NC(=O)c3ccc(-n4ccnc4)nn3)cc2F)c(F)cc1C(=O)O)c1ccc(-n2ccnc2)nn1` [US20230357253, Compound 141] was run?
A: < 0.01 µM

Q: Which IC50 does the source give for `COc1cc(C(=O)O)c(NC(=O)c2ccc(-n3ccnc3)nn2)cc1OCCc1cc(C(=O)O)c(NC(=O)c2ccc(-n3ccnc3)nn2)cc1C#N` [US20230357253, Compound 130] here?
A: < 0.01 µM

Q: How did the IC50 turn out when `COC(=O)c1ccc(OCCCCOc2ccc(C(=O)O)c(NC(=O)c3ccc(-n4ccnc4)nn3)c2)cc1NC(=O)c1ccc2nnnn2n1` [US20230357253, Compound 37] was run?
A: > 1 µM

Q: With `O=C(Nc1cc(CCCc2cc(NC(=O)c3ccc(-n4ccnc4)nn3)c(C(=O)O)cc2Cl)ccc1C(=O)O)c1ccc(-n2ccnc2)nn1` [US20230357253, Compound 66] as the compound, how does the IC50 read?
A: < 0.01 µM

Q: Which IC50 does the source give for `O=C(Nc1cc(OCCCCCOc2ccc(C(=O)O)c(NC(=O)c3ccc4nnnn4n3)c2)ccc1C(=O)O)c1ccc2nnnn2n1` [US20230357253, Compound 30] here?
A: > 1 µM

Q: `O=C(Nc1cc(OCCCOc2ccc(C(=O)O)c(NC(=O)c3ccc4nnnn4n3)c2)ccc1C(=O)O)c1ccc2nnnn2n1` [US20230357253, Compound 28] was tested. Which IC50 did it give?
A: > 1 µM

Q: With `O=C(Nc1c(C(=O)O)cc(F)c(OCCCCOc2c(F)cc(C(=O)O)c(NC(=O)c3ccc(-n4ccnc4)nn3)c2F)c1F)c1ccc(-n2ccnc2)nn1` [US20230357253, Compound 38] as the compound, how does the IC50 read?
A: > 1 µM

Q: For `O=C(Nc1cc(CCOc2cc(C(=O)O)c(NC(=O)c3ccc4nnnn4n3)cc2F)c(F)cc1C(=O)O)c1ccc(-n2ccnc2)nn1` [US20230357253, Compound 145], which IC50 is on record?
A: 0.01 to 0.1 µM

Q: `COc1cc(C(=O)O)c(NC(=O)c2ccc(-n3ccnc3)nn2)cc1OCCCCOc1cc(NC(=O)c2ccc(-n3ccnc3)nn2)c(C(=O)O)cc1OC` [US20230357253, Compound 21] was tested. Which IC50 did it give?
A: > 1 µM

Q: How did the IC50 turn out when `COc1cc(C(=O)O)c(NC(=O)c2ccc(-n3ccnc3)nn2)cc1OCCc1cc(C(=O)O)c(NC(=O)c2ccc3nnnn3n2)cc1Cl` [US20230357253, Compound 6] was run?
A: < 0.01 µM

Q: `O=C(Nc1cc(OCCCCOc2ccc(NC(=O)c3ccc4nnnn4n3)c(C(=O)O)c2)ccc1C(=O)O)c1ccc2nnnn2n1` [US20230357253, Compound 27] was tested. Which IC50 did it give?
A: > 1 µM

Q: How did the IC50 turn out when `O=C(Nc1cc(CCCc2ccc(-c3nn[nH]n3)c(NC(=O)c3ccc(-n4ccnc4)nn3)c2)c(F)cc1C(=O)O)c1ccc(-n2ccnc2)nn1` [US20230357253, Compound 148] was run?
A: > 1 µM

Q: Which IC50 does the source give for `O=C(Nc1cc(CCCOc2cc(NC(=O)c3ccc(-n4ccnc4)nn3)c(C(=O)O)cc2F)c(F)cc1C(=O)O)c1ccc(-n2ccnc2)nn1` [US20230357253, Compound 125] here?
A: < 0.01 µM

Q: With `O=C(Nc1cc(CCCc2ccc(C(=O)O)c(NC(=O)c3ccc4nnnn4n3)c2)ccc1C(=O)O)c1ccc(-n2ccnc2)nn1` [US20230357253, Compound 63] as the compound, how does the IC50 read?
A: > 1 µM

Q: `O=C(Nc1cc(OCCOc2ccc(NC(=O)c3ccc4nnnn4n3)c(C(=O)O)c2)ccc1C(=O)O)c1ccc2nnnn2n1` [US20230357253, Compound 31] was tested. Which IC50 did it give?
A: > 1 µM
